Values of other authors, collected in patent publication US6388175B1, “Control of leaf scald disease” (priority 1995, dated 2002).
Entries after “also recorded” stand apart in the source; their conditions may differ.

Conditions: 100° C. for 30 min

Substance: albicidin
- Activity after heating: unaffected; also recorded: little activity is lost
